Results on 13 compounds are retold here after ChEMBL document CHEMBL1201862, “PubChem BioAssay data set” (2004).

The structures appear in SMILES notation.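 These data come from cells grown in 96-well plates and exposed to compound for 48 hours at five concentrations. GI50 marks 50% less growth.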 The source made the active and inactive calls. Cut-off read from the data, not from the text of the source: active = GI50 up to about 1.1 µM and inactive = higher. Some results are limits rather than exact numbers.

Among the test systems are K562; SR; LOX IMVI; SF-268; CCRF-CEM; SK-OV-3; 786-0; DLD-1; HCC 2998; KM12; SNB-19; HOP-62; SF-295; KM-20L2; MOLT-4; EKVX; SK-MEL-2; DU-145; T47D; MDA-N.
Assay in all cases: NCI-60 cell line screen, 48 h

As to `O=C(c1ccccc1)N1C2CCC1C(C(F)(F)F)=C2C(F)(F)F`, the GI50 with K562, in the experiment with SR, in the experiment on LOX IMVI, in the experiment with SF-268, in the experiment on CCRF-CEM and with SK-OV-3 was > 100 µM (inactive) each time. Further, the GI50 with 786-0, with DLD-1, in the experiment with HCC 2998, in the experiment on KM12, in the experiment on SNB-19 and in the experiment on HOP-62 was > 100 µM (inactive) each time. The GI50 in the experiment with SF-295, with KM-20L2, in the experiment with MOLT-4 and in the experiment on EKVX was > 100 µM (inactive) throughout.
Turning to `NCCNCc1c2ccccc2c(CNCCN)c2ccccc12`, the GI50 in the experiment with K562 is 7.59 µM (inactive); in the experiment on SK-MEL-2, 14.5 µM (inactive); in the experiment with SR, 4.18 µM (inactive); in the experiment with SF-268, 7.98 µM (inactive); in the experiment with CCRF-CEM it was 15.4 µM (inactive); in the experiment on 786-0, 13.3 µM (inactive). The GI50 is 53.1 µM (inactive) in the experiment on DLD-1; 9.59 µM (inactive) in the experiment with HCC 2998; 15.3 µM (inactive) in the experiment on KM12; 24.3 µM (inactive) in the experiment with HOP-62; 17.4 µM (inactive) with SF-295; 10.3 µM (inactive) in the experiment on KM-20L2. In addition, the GI50 is 3.78 µM (inactive) in the experiment on MOLT-4 and 20.2 µM (inactive) with EKVX.
With `O=S(=O)(C1=CC(S(=O)(=O)c2ccccc2)COC1)c1ccccc1` (stereo unspecified), the GI50 in the experiment on K562, with SK-MEL-2, in the experiment on SR, with LOX IMVI, in the experiment with SF-268 and in the experiment on CCRF-CEM was > 100 µM (inactive) each time. The GI50 in the experiment on SK-OV-3, in the experiment with 786-0, in the experiment on DLD-1, in the experiment on HCC 2998, with KM12 and with SNB-19 was > 100 µM (inactive) in each case. Moreover, the GI50 in the experiment on HOP-62, with SF-295, in the experiment with MOLT-4 and in the experiment on EKVX was > 100 µM (inactive) throughout.
With `CS(=O)(=O)OCCn1cnc2nc(NC(=O)c3ccccc3)[nH]c(=O)c21`, the GI50 in the experiment with K562, in the experiment on SK-MEL-2, in the experiment on SR, in the experiment on LOX IMVI, with SF-268 and in the experiment with CCRF-CEM was > 100 µM (inactive) each time. Further, the GI50 in the experiment with SK-OV-3, in the experiment on 786-0, in the experiment on DLD-1, in the experiment with KM12, in the experiment on SNB-19 and in the experiment with HOP-62 was > 100 µM (inactive) each time. The GI50 with SF-295, in the experiment with KM-20L2 and in the experiment on EKVX was > 100 µM (inactive) throughout.
Turning to `CC(=O)OC1=C2CC[C@@H]3C(CC[C@@]4(C)C3CC[C@@H]4OC(C)=O)[C@@]2(C)CC(C#N)C1=O` (stereo partly specified), the GI50 in the experiment with K562 was 22.6 µM (inactive); with SK-MEL-2, 4.32 µM (inactive); in the experiment on LOX IMVI, 16.8 µM (inactive); with SF-268 it was 31 µM (inactive); in the experiment on CCRF-CEM, 20.2 µM (inactive); in the experiment on SK-OV-3 it was 18.3 µM (inactive). The GI50 in the experiment on 786-0 is 10.8 µM (inactive); with DLD-1, 9.82 µM (inactive); in the experiment on HCC 2998, 13.3 µM (inactive); with KM12, 30.3 µM (inactive); with SNB-19, 25.2 µM (inactive); in the experiment with HOP-62 it was 8.67 µM (inactive). The GI50 is 32.8 µM (inactive) with SF-295, 27.7 µM (inactive) with KM-20L2, 23.4 µM (inactive) in the experiment on MOLT-4 and 33 µM (inactive) in the experiment with EKVX.
As for `COc1ccc(NC(=O)CC(=O)NN2C(=O)/C(=C/c3ccc(N(CCC#N)CCC#N)cc3C)N=C2/C=C\c2ccccc2)cc1`, the GI50 with K562, in the experiment on SK-MEL-2, in the experiment on SR, in the experiment on LOX IMVI, in the experiment with SF-268 and with CCRF-CEM was > 100 µM (inactive) throughout. Further, the GI50 in the experiment with SK-OV-3, in the experiment on 786-0, with DLD-1, in the experiment with KM12, in the experiment on SNB-19 and in the experiment on HOP-62 was > 100 µM (inactive) in each case. Moreover, the GI50 with SF-295, with KM-20L2 and with MOLT-4 was > 100 µM (inactive) throughout.
Turning to `Fc1ccc(C2SCc3nc4ccccc4n32)cc1` (stereo unspecified), the GI50 with K562 was 31.3 µM (inactive); in the experiment on SK-MEL-2, 39.6 µM (inactive); in the experiment on SR it was 27 µM (inactive); with LOX IMVI, 49.2 µM (inactive); with SF-268, 54.3 µM (inactive); in the experiment on CCRF-CEM, 42.1 µM (inactive). The GI50 in the experiment on SK-OV-3 is 94.6 µM (inactive); in the experiment with 786-0 it was 42.9 µM (inactive); in the experiment on DLD-1 it was 39.7 µM (inactive); in the experiment on KM12, 37.2 µM (inactive); with SNB-19, 6.1 µM (inactive); in the experiment with HOP-62, 35.8 µM (inactive). Moreover, the GI50 with SF-295 was 40.7 µM (inactive); in the experiment on MOLT-4, 32.1 µM (inactive); with EKVX, 58.1 µM (inactive).
Take `NC(=O)C(=O)CC(=O)c1ccccc1NC1=CC(=O)C(=O)c2ccccc21`: the GI50 is 47 µM (inactive) with K562; 65.8 µM (inactive) with SK-MEL-2; 14 µM (inactive) in the experiment with LOX IMVI; > 40.8 µM (inactive) with SF-268; 33.9 µM (inactive) with CCRF-CEM; > 100 µM (inactive) with SK-OV-3. Besides, the GI50 with 786-0 is > 61.1 µM (inactive); in the experiment with DLD-1, 42.3 µM (inactive); in the experiment on HCC 2998, > 100 µM (inactive); in the experiment with KM12 it was 54.3 µM (inactive); in the experiment on SNB-19, > 58.2 µM (inactive); with HOP-62, > 100 µM (inactive). Further, the GI50 was > 100 µM (inactive) in the experiment with KM-20L2, > 55 µM (inactive) in the experiment on MOLT-4 and > 100 µM (inactive) with EKVX.
For `COc1cc([C@@H]2c3cc4c(cc3[C@@H](NCc3ccc(C#N)cc3)C3COC(=O)[C@@H]32)OCO4)cc(OC)c1O` (stereo partly specified), the GI50 is 1.54 µM (inactive) in the experiment with K562; 3.27 µM (inactive) in the experiment on SK-MEL-2; 0.778 µM (active) in the experiment on LOX IMVI; 1.25 µM (inactive) in the experiment on SF-268; 0.233 µM (active) in the experiment on CCRF-CEM; 0.989 µM (active) in the experiment with SK-OV-3. The GI50 in the experiment with 786-0 was 0.632 µM (active); in the experiment with DLD-1, 1.33 µM (inactive); with HCC 2998, 1.57 µM (inactive); with KM12, 1.4 µM (inactive); in the experiment with SNB-19, 0.621 µM (active); in the experiment on HOP-62 it was 0.31 µM (active). Besides, the GI50 in the experiment on SF-295 was 0.533 µM (active); in the experiment with KM-20L2 it was 1.08 µM (active); in the experiment with MOLT-4 it was 0.0512 µM (active); in the experiment with EKVX, 1.98 µM (inactive).
With `Cc1cc(N(CCC#N)CCC#N)ccc1/N=N/c1ccccc1[N+](=O)[O-]`, the GI50 with K562, in the experiment on SK-MEL-2, in the experiment on LOX IMVI, in the experiment on SF-268, with CCRF-CEM and in the experiment on SK-OV-3 was > 100 µM (inactive) each time. Further, the GI50 with 786-0 was > 100 µM (inactive); in the experiment on DLD-1, > 100 µM (inactive); with HCC 2998, > 100 µM (inactive); in the experiment with KM12, > 100 µM (inactive); with HOP-62, 43.6 µM (inactive); with SF-295, > 100 µM (inactive). The GI50 in the experiment on MOLT-4 and in the experiment with EKVX was > 100 µM (inactive) in each case.
Take `CC(C)C12Cc3c(ccc4ccccc34)OC1(C)Oc1ccc3ccccc3c1C2` (stereo unspecified): the GI50 in the experiment with K562, in the experiment on SK-MEL-2, with SR, in the experiment on LOX IMVI, with SF-268 and in the experiment on CCRF-CEM was > 100 µM (inactive) throughout. Moreover, the GI50 in the experiment on SK-OV-3, in the experiment with 786-0, with DLD-1, in the experiment on KM12, in the experiment with SNB-19 and in the experiment with SF-295 was > 100 µM (inactive) in each case. The GI50 was > 100 µM (inactive) in the experiment on KM-20L2, > 100 µM (inactive) in the experiment with MOLT-4 and 10.6 µM (inactive) with EKVX.
`COc1ccc(Oc2cnn(C(Br)(Br)C(C)=O)c(=O)c2Br)cc1`: the GI50 in the experiment with K562 was 3.85 µM (inactive); in the experiment on SK-MEL-2, 16.3 µM (inactive); in the experiment with SR, 1.69 µM (inactive); in the experiment with LOX IMVI, 11 µM (inactive); with SF-268, 14.6 µM (inactive); in the experiment on CCRF-CEM, 1.82 µM (inactive). Also, the GI50 in the experiment on SK-OV-3 was 24.3 µM (inactive); in the experiment with DU-145, 19.2 µM (inactive); in the experiment on 786-0 it was 13.9 µM (inactive); with T47D, 18.5 µM (inactive); in the experiment on HCC 2998, 16.8 µM (inactive); in the experiment on KM12, 14.8 µM (inactive). The GI50 in the experiment with SNB-19 is 24.5 µM (inactive); in the experiment with HOP-62 it was 16.7 µM (inactive); in the experiment on SF-295, 18.2 µM (inactive); in the experiment with MDA-N, 10.3 µM (inactive); in the experiment with MOLT-4, 0.861 µM (active); in the experiment with EKVX, 17.1 µM (inactive).
Take `CCOC(=O)/C(C#N)=C/c1[nH]c(C)c(C)c1C`: the GI50 in the experiment on K562, in the experiment on SK-MEL-2, in the experiment on LOX IMVI, in the experiment with SF-268, in the experiment with CCRF-CEM and in the experiment on SK-OV-3 was > 100 µM (inactive) throughout. In addition, the GI50 in the experiment with 786-0, in the experiment with DLD-1, in the experiment with HCC 2998, with KM12, in the experiment with SNB-19 and in the experiment on HOP-62 was > 100 µM (inactive) throughout. Moreover, the GI50 in the experiment with SF-295, in the experiment with KM-20L2, in the experiment on MOLT-4 and in the experiment on EKVX was > 100 µM (inactive) each time.
